Assay results from patent US20260167656A1, “PHOSPHORAMIDATE COMPOUNDS AND USES THEREOF” (ALLORION THERAPEUTICS INC, priority 2022, published 2026).

How the values were obtained:
[1] = system: non-small cell lung cancer cell line H460; test: H460 proliferation assay in the presence of 3 uM ASP9521 (AKR1C3 specific inhibitor); type: cell-based, human; settings: H460 cells, CellTiter-Glo, 72 hours, in the presence of 3 uM ASP9521 added 4 hours prior to compounds; read-out: CTG H460: Avg IC50 (nM) [Assay Condition: ASP9521]
Procedure, shortened: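 AKR1C3 blocked with 3 uM ASP9521 given 4 h ahead of test compounds. H460 cells, plated 24 h earlier, were then treated for 72 h at 37 °C in 5% CO2. CellTiter-Glo luminescence gave viability.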

[2] = system: non-small cell lung cancer cell line H460; test: In vitro human cancer cell line cytotoxicity (proliferation) assay in H460, CellTiter-Glo, 72 hours; type: cell-based; settings: H460 cells, DMSO condition (no AKR1C3 inhibitor), read-out: CTG H460: Avg IC50 (nM) [Assay Condition: DMSO]
Procedure, shortened: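 IC50s in nM come from CellTiter-Glo viability read after 72 h of compound exposure. Compounds went in from 10 mM DMSO stocks onto H460 cells, which had been plated at 3×10^3 per well and grown 24 h beforehand at 37 °C, 5% CO2.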

Compound	IC50 [1] [nM]	IC50 ([2]; Homo sapiens, NCI-H460, 72 h) [nM]	IC50 [2] [nM]
O=[N+]([O-])c1ccc2c(c1Oc1cccc(-n3cncn3)c1)CC[C@@H]2OP(=O)(N1CC1)N1CC1 [Example 435]	482	< 10	–
O=[N+]([O-])c1ccc2c(c1Oc1cccc(-n3ncnn3)c1)CC[C@@H]2OP(=O)(N1CC1)N1CC1 [Example 436]	138	< 10	–
O=[N+]([O-])c1ccc2c(c1Oc1cccc(-n3ncnn3)c1)CC[C@H]2OP(=O)(N1CC1)N1CC1 [Example 437]	235	< 10	–
O=[N+]([O-])c1ccc2c(c1Oc1ccc(F)c(-n3cncn3)c1)CC[C@@H]2OP(=O)(N1CC1)N1CC1 [Example 438]	416	< 10	–
Cc1ccn(-c2cc(Oc3c([N+](=O)[O-])ccc4c3CC[C@@H]4OP(=O)(N3CC3)N3CC3)ccc2F)n1 [Example 439]	2090	< 10	–
Cc1ncn(-c2cc(Oc3c([N+](=O)[O-])ccc4c3CC[C@@H]4OP(=O)(N3CC3)N3CC3)ccc2F)n1 [Example 440]	897	< 10	–
O=[N+]([O-])c1ccc2c(c1Oc1ccc(F)c(-n3ncnn3)c1)CC[C@@H]2OP(=O)(N1CC1)N1CC1 [Example 441]	158	< 10	–
O=[N+]([O-])c1ccc2c(c1Oc1ccc(F)c(-n3ccc(F)n3)c1)CC[C@@H]2OP(=O)(N1CC1)N1CC1 [Example 442]	667	< 10	–
O=[N+]([O-])c1ccc2c(c1Oc1ccc(F)c(-n3ccc(F)n3)c1)CC[C@H]2OP(=O)(N1CC1)N1CC1 [Example 443]	571	< 10	–
O=[N+]([O-])c1ccc2c(c1Oc1cccc(-n3ccc(F)n3)c1)CC[C@@H]2OP(=O)(N1CC1)N1CC1 [Example 444]	192	< 10	–
O=[N+]([O-])c1ccc2c(c1Oc1cccc(-n3ccc(F)n3)c1)CC[C@H]2OP(=O)(N1CC1)N1CC1 [Example 445]	357	< 10	–
O=[N+]([O-])c1ccc2c(c1Oc1cc(O)cc(OCC3CC3)c1)CC[C@@H]2OP(=O)(N1CC1)N1CC1 [Example 446, (S)-4-(3-(cyclopropylmethoxy)-5-hydroxyphenoxy)-5-nitro-2,3-dihydro-1H-inden-1-yl di(aziridin-1-yl)phosphinate]	1210	< 10	–
COc1cccc(Oc2c([N+](=O)[O-])ccc3c2CC[C@H]3OP(=O)(N2CC2)N2CC2)c1 [Example 448]	647	–	< 10
O=[N+]([O-])c1ccc2c(c1Oc1cccc(OC(F)(F)F)c1)CC[C@@H]2OP(=O)(N1CC1)N1CC1 [Example 449]	570	–	< 10
O=[N+]([O-])c1ccc2c(c1Oc1cccc(OC(F)(F)F)c1)CC[C@H]2OP(=O)(N1CC1)N1CC1 [Example 450]	1060	–	< 10
CC(C)Oc1cccc(Oc2c([N+](=O)[O-])ccc3c2CC[C@@H]3OP(=O)(N2CC2)N2CC2)c1 [Example 452]	2240	–	< 10
CC(C)Oc1cccc(Oc2c([N+](=O)[O-])ccc3c2CC[C@H]3OP(=O)(N2CC2)N2CC2)c1 [Example 453]	819	–	< 10
Cn1cc(Oc2cccc(Oc3c([N+](=O)[O-])ccc4c3CC[C@H]4OP(=O)(N3CC3)N3CC3)c2)cn1 [Example 455]	1660	–	< 10
O=[N+]([O-])c1ccc2c(c1Oc1cccc(S(=O)(=O)C3CC3)c1)CC[C@H]2OP(=O)(N1CC1)N1CC1 [Example 456]	940	–	< 10
O=[N+]([O-])c1ccc2c(c1Oc1cccc(OC(F)F)c1)CC[C@@H]2OP(=O)(N1CC1)N1CC1 [Example 457]	768	–	< 10
O=[N+]([O-])c1ccc2c(c1Oc1cccc(OC(F)F)c1)CC[C@H]2OP(=O)(N1CC1)N1CC1 [Example 458]	506	–	< 10

Compound	IC50 [1] [nM]	IC50 ([2]; Homo sapiens, NCI-H460, 72 h) [nM]	IC50 [2] [nM]
COc1cncc(Oc2c([N+](=O)[O-])ccc3c2CC[C@H]3OP(=O)(N2CC2)N2CC2)c1 [Example 462]	917	–	< 10
O=[N+]([O-])c1ccc2c(c1Oc1cccc(OC3CCC3)c1)CC[C@@H]2OP(=O)(N1CC1)N1CC1 [Example 463]	478	–	< 10
O=[N+]([O-])c1ccc2c(c1Oc1cccc(OC3CCC3)c1)CC[C@H]2OP(=O)(N1CC1)N1CC1 [Example 464]	1390	–	< 10
CSc1ccc(Oc2c([N+](=O)[O-])ccc3c2CC[C@@H]3OP(=O)(N2CC2)N2CC2)cc1 [Example 466]	975	–	< 10
O=[N+]([O-])c1ccc2c(c1Oc1cccc(OC3CC3)c1)CC[C@H]2OP(=O)(N1CC1)N1CC1 [Example 467]	4160	–	< 10
O=[N+]([O-])c1ccc2c(c1Oc1cccc(OC3COC3)c1)CC[C@H]2OP(=O)(N1CC1)N1CC1 [Example 468]	660	–	< 10
O=[N+]([O-])c1ccc2c(c1Oc1cccc(OC3CCCC3)c1)CC[C@@H]2OP(=O)(N1CC1)N1CC1 [Example 469]	1130	–	< 10
O=[N+]([O-])c1ccc2c(c1Oc1cccc(OC3CCCC3)c1)CC[C@H]2OP(=O)(N1CC1)N1CC1 [Example 470]	1150	–	< 10
O=[N+]([O-])c1ccc2c(c1Oc1cncc(OC3CC3)c1)CC[C@@H]2OP(=O)(N1CC1)N1CC1 [Example 471]	3060	–	< 10
CSc1cccc(Oc2c([N+](=O)[O-])ccc3c2CC[C@H]3OP(=O)(N2CC2)N2CC2)c1 [Example 472]	583	–	< 10
O=[N+]([O-])c1ccc2c(c1Oc1cccc(OCC(F)(F)F)c1)CC[C@@H]2OP(=O)(N1CC1)N1CC1 [Example 474]	918	–	< 10
O=[N+]([O-])c1ccc2c(c1Oc1ccc(F)c(OC3CCCC3)c1)CCC2OP(=O)(N1CC1)N1CC1 (stereo not drawn) [Example 476]	1090	–	< 10
O=[N+]([O-])c1ccc2c(c1Oc1ccc(F)c(OC(F)F)c1)CCC2OP(=O)(N1CC1)N1CC1 (stereo not drawn) [Example 477]	627	–	< 10
O=[N+]([O-])c1ccc2c(c1Oc1ccc(F)c(OC3CCCC3)c1)CCC2OP(=O)(N1CC1)N1CC1 (stereo not drawn) [Example 478]	1690	–	< 10
O=[N+]([O-])c1ccc2c(c1Oc1ccc(F)c(OC3CCCC3)c1)CCC2OP(=O)(N1CC1)N1CC1 (stereo not drawn) [Example 479]	1630	–	< 10
O=[N+]([O-])c1ccc2c(c1Oc1cccc(OCC3CC3)c1)CCC2OP(=O)(N1CC1)N1CC1 (stereo not drawn) [Example 480]	1760	–	< 10
O=[N+]([O-])c1ccc2c(c1Oc1cccc(OCC3CC3)c1)CC[C@@H]2OP(=O)(N1CC1)N1CC1 [Example 481]	1120	< 10	–
O=[N+]([O-])c1ccc2c(c1Oc1cccc(OCC3CC3)c1)CCC2OP(=O)(N1CC1)N1CC1 (stereo not drawn) [Example 482]	1340	–	< 10
COc1ccc(Oc2c([N+](=O)[O-])ccc3c2CCC3OP(=O)(N2CC2)N2CC2)cc1OC1CC1 (stereo not drawn) [Example 483]	735	–	< 10
CC(C)COc1cccc(Oc2c([N+](=O)[O-])ccc3c2CCC3OP(=O)(N2CC2)N2CC2)c1 (stereo not drawn) [Example 484]	1990	–	< 10
CC(C)COc1cccc(Oc2c([N+](=O)[O-])ccc3c2CCC3OP(=O)(N2CC2)N2CC2)c1 (stereo not drawn) [Example 485]	1150	–	< 10
